Laboratory results: US20240376097A1, “BCL-2 Inhibitor” (BeiGene Ltd., priority 2020, published 2024)

Assays:
[1] = target: recombinant human Bcl-2-G101V protein (Homo sapiens (Human), UniProt P10415, G101V); assay: Bcl-2-G101V TR-FRET Assay; format: binding; settings: Bcl-2 G101V mutant, TR-FRET; read-out: Biochemical assay (IC50, nM) Bcl-2 G101V
In short: (§1)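 IC50 values derive from four-parameter logistic fitting of percent inhibition data. That inhibition of ligand binding to Bcl-2-G101V is computed from the 490 nm/520 nm TR-FRET ratio under 337 nm excitation, over a rising compound concentration series.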

[2] = tested on: recombinant human Bcl-2-G101V protein; assay: Bcl-2-G101V TR-FRET Assay; format: binding; settings: for Ratio of Bcl-2 G101V/WT: ratio of biochemical IC50 Bcl-2 G101V / Bcl-2 WT; for ratio of IC50 of Bcl-2 G101V/Bcl-2 wt, compared with Example F132b in WO2019210828 and ABT-199 (venetoclax): comparison in words
In short: as §1

[3] = Metabolic Stability Study, liver microsome incubation (human); format: in vitro ADME; settings: human liver microsomes 0.5 mg/mL, 1 μM compound, NADPH; for half-life at 1 μM: NA^# = very stable, beyond the detection limits, read-out: T1/2 (min) Human; for microsomal CLint at 1 μM: read-out: CLint (μL × min^−1 × mg^−1) Human
In short: (§2)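 Test compounds (1 μM) incubated at 37° C with 0.5 mg/mL liver microsomes plus NADPH regenerating system; samples quenched at 0, 30 and 60 min. Parent loss measured by LC-MS/MS, giving CLint and T1/2, with CLint normalised to microsomal protein concentration.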

[4] = tested on: BCL-2 G101V knock-in cell line H96 (derive from RS4;11); assay: Bcl 2-G101V Knock-In RS4;11 Cell Proliferation Assay; format: cell-based; settings: Homo sapiens, RS4-11, 48 h, RS4;11 Bcl-2 G101V knock-in clone H96, 48 hrs, CellTiter-GLO, read-out: Cellular proliferation assay (IC50, nM) RS4
In short: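 CellTiter-Glo luminescence after 48 h, 37 °C compound treatment (10 concentrations, maximum 1 μM or 10 μM) gave mean IC50 values. Cells were 50,000 per well of H96, a BCL2-G101V knock-in single clone derived from RS4;11 by Cas9 editing.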

[5] = Metabolic Stability Study, liver microsome incubation (mouse); format: in vitro ADME; settings: mouse liver microsomes 0.5 mg/mL, 1 μM compound, NADPH; for half-life at 1 μM: NA^# = very stable, beyond the detection limits, read-out: T1/2 (min) mouse; for microsomal CLint at 1 μM: read-out: CLint (μL × min^−1 × mg^−1) mouse
In short: as §2

COc1ccc(CN2CCN(C3CC4(CCN(c5ccc(C(=O)NS(=O)(=O)c6ccc(NC[C@H]7CC[C@](C)(O)CC7)c([N+](=O)[O-])c6)c(Oc6cnc7[nH]ccc7c6)c5)CC4)C3)C(c3ccccc3C(C)C)C2)cn1 (some centres unmarked) [Example 72, 2-((1H-pyrrolo[2,3-b]pyridin-5-yl)oxy)-N-((4-((((1r,4r)-4-hydroxy-4-methylcyclohexyl)methyl)amino)-3-nitrophenyl)sulfonyl)-4-(2-(2-(2-isopropylphenyl)-4-((6-methoxypyridin-3-yl)methyl)piperazin-1-yl)-7-azaspiro[3.5]nonan-7-yl)benzamide]
IC50 [1]: 0.2 nM | Ratio of Bcl-2 G101V/WT [2]: 4 | half-life at 1 μM [3]: 491 min | microsomal CLint at 1 μM [3]: 2.8 µL/min/mg | IC50 [4]: 1.7 nM | half-life at 1 μM [5]: 159 min | microsomal CLint at 1 μM [5]: 8.7 µL/min/mg

CC(C)c1ccccc1[C@@H]1CN(Cc2cccc3c2OCCO3)CCN1C1CC2(CCN(c3ccc(C(=O)NS(=O)(=O)c4ccc(NC[C@H]5CC[C@](C)(O)CC5)c([N+](=O)[O-])c4)c(Oc4cnc5[nH]ccc5c4)c3)CC2)C1 [Example 79a, 2-((1H-pyrrolo[2,3-b]pyridin-5-yl)oxy)-4-(2-(R-4-((2,3-dihydrobenzo [b][1,4]dioxin-5-yl)methyl)-2-(2-isopropylphenyl)piperazin-1-yl)-7-azaspiro[3.5]nonan-7-yl)-N-((4-((((1r,4r)-4-hydroxy-4-methylcyclohexyl)methyl)amino)-3-nitrophenyl)sulfonyl)benzamide]
IC50 [1]: 0.25 nM | Ratio of Bcl-2 G101V/WT [2]: 2.4 | half-life at 1 μM [3]: 253 min | microsomal CLint at 1 μM [3]: 5.5 µL/min/mg | IC50 [4]: 0.48 nM | half-life at 1 μM [5]: 124 min | microsomal CLint at 1 μM [5]: 11.2 µL/min/mg

COc1ccc(CN2CCN(C3CC4(CCN(c5ccc(C(=O)NS(=O)(=O)c6ccc(NC[C@H]7CC[C@](C)(O)CC7)c([N+](=O)[O-])c6)c(Oc6cnc7[nH]ccc7c6)c5)CC4)C3)[C@H](c3ccccc3C(C)C)C2)cc1OC [Example 81a, 2-((1H-pyrrolo[2,3-b]pyridin-5-yl)oxy)-4-(2-((R)-4-(3,4-dimethoxybenzyl)-2-(2-isopropylphenyl)piperazin-1-yl)-7-azaspiro[3.5]nonan-7-yl)-N-((4-((((1r,4r)-4-hydroxy-4-methylcyclohexyl)methyl)amino)-3-nitrophenyl)sulfonyl)benzamide]
IC50 [1]: 0.075 nM | Ratio of Bcl-2 G101V/WT [2]: 2.0 | microsomal CLint at 1 μM [3]: < 1 µL/min/mg | IC50 [4]: 0.48 nM | half-life at 1 μM [5]: 219 min | microsomal CLint at 1 μM [5]: 6.32 µL/min/mg

COc1ccc(CN2CCN(C3CC4(CCN(c5ccc(C(=O)NS(=O)(=O)c6ccc(NC[C@H]7CC[C@](C)(O)CC7)c([N+](=O)[O-])c6)c(Oc6cnc7[nH]cc(F)c7c6)c5)CC4)C3)[C@H](c3ccccc3C(C)C)C2)cc1OC [Example 127, 4-(2-((R)-4-(3,4-dimethoxybenzyl)-2-(2-isopropylphenyl)piperazin-1-yl)-7-azaspiro[3.5]nonan-7-yl)-2-((3-fluoro-1H-pyrrolo[2,3-b]pyridin-5-yl)oxy)-N-((4-((((1r,4r)-4-hydroxy-4-methylcyclohexyl)methyl)amino)-3-nitrophenyl)sulfonyl)benzamide]
IC50 [1]: 0.13 nM | ratio of IC50 of Bcl-2 G101V/Bcl-2 wt, compared with Example F132b in WO2019210828 and ABT-199 (venetoclax) [2]: much lower | Ratio of Bcl-2 G101V/WT [2]: 1.8 | microsomal CLint at 1 μM [3]: < 1 µL/min/mg | IC50 [4]: 0.367 nM | half-life at 1 μM [5]: 182 min | microsomal CLint at 1 μM [5]: 7.63 µL/min/mg

COc1ccc(CN2CCN(C3CC4(C3)CN(c3ccc(C(=O)NS(=O)(=O)c5ccc(NC[C@H]6CC[C@](C)(O)CC6)c([N+](=O)[O-])c5)c(Oc5cnc6[nH]cc(F)c6c5)c3)C4)[C@H](c3ccccc3C(C)C)C2)cc1OC [Example 141a, 4-(6-((R)-4-(3,4-dimethoxybenzyl)-2-(2-isopropylphenyl)piperazin-1-yl)-2-azaspiro[3.3]heptan-2-yl)-2-((3-fluoro-1H-pyrrolo[2,3-b]pyridin-5-yl)oxy)-N-((4-((((1r,4r)-4-hydroxy-4-methylcyclohexyl)methyl)amino)-3-nitrophenyl)sulfonyl)benzamide]
IC50 [1]: 0.13 nM | ratio of IC50 of Bcl-2 G101V/Bcl-2 wt, compared with Example F132b in WO2019210828 and ABT-199 (venetoclax) [2]: much lower | Ratio of Bcl-2 G101V/WT [2]: 2.5 | half-life at 1 μM [3]: 343 min | microsomal CLint at 1 μM [3]: 4 µL/min/mg | IC50 [4]: 0.268 nM | half-life at 1 μM [5]: 18100 min | microsomal CLint at 1 μM [5]: 0.07 µL/min/mg

COc1ccc(CN2CCN(C3CC4(C3)CN(c3ccc(C(=O)NS(=O)(=O)c5ccc(NC[C@H]6CC[C@](C)(O)CC6)c([N+](=O)[O-])c5)c(Oc5cnc6[nH]ccc6c5)c3)C4)[C@H](c3ccccc3C(C)C)C2)cc1OC [Example 145, 2-((1H-pyrrolo[2,3-b]pyridin-5-yl)oxy)-4-(6-((R)-4-(3,4-dimethoxybenzyl)-2-(2-isopropylphenyl)piperazin-1-yl)-2-azaspiro[3.3]heptan-2-yl)-N-((4-((((1r,4r)-4-hydroxy-4-methylcyclohexyl)methyl)amino)-3-nitrophenyl)sulfonyl)benzamide]
IC50 [1]: 0.084 nM | ratio of IC50 of Bcl-2 G101V/Bcl-2 wt, compared with Example F132b in WO2019210828 and ABT-199 (venetoclax) [2]: much lower | Ratio of Bcl-2 G101V/WT [2]: 3 | half-life at 1 μM [3]: 970 min | microsomal CLint at 1 μM [3]: 1.4 µL/min/mg | IC50 [4]: 0.23 nM | half-life at 1 μM [5]: 196 min | microsomal CLint at 1 μM [5]: 7.1 µL/min/mg

COc1ccc(CN2CCN(C3CC4(C3)CN(c3ccc(C(=O)NS(=O)(=O)c5ccc(NC[C@H]6CC[C@](C)(O)CC6)c([N+](=O)[O-])c5)c(Oc5cnc6[nH]ccc6c5)c3)C4)[C@H](c3ccccc3C(C)C)C2)cc1 [Example 147, 2-((1H-pyrrolo[2,3-b]pyridin-5-yl)oxy)-N-((4-((((1r,4r)-4-hydroxy-4-methylcyclohexyl)methyl)amino)-3-nitrophenyl)sulfonyl)-4-(6-((R)-2-(2-isopropylphenyl)-4-(4-methoxybenzyl)piperazin-1-yl)-2-azaspiro[3.3]heptan-2-yl) benzamide]
IC50 [1]: 0.17 nM | Ratio of Bcl-2 G101V/WT [2]: 3.1 | microsomal CLint at 1 μM [3]: < 1 µL/min/mg | IC50 [4]: 0.588 nM | half-life at 1 μM [5]: 301 min | microsomal CLint at 1 μM [5]: 4.6 µL/min/mg

[2H]C([2H])([2H])Oc1ccc(CN2CCN(C3CC4(CCN(c5ccc(C(=O)NS(=O)(=O)c6ccc(NC[C@H]7CC[C@](C)(O)CC7)c([N+](=O)[O-])c6)c(Oc6cnc7[nH]cc(F)c7c6)c5)CC4)C3)[C@H](c3ccccc3C(C)C)C2)cc1OC([2H])([2H])[2H] [Example 198, 4-(2-((R)-4-(3,4-bis(methoxy-d3)benzyl)-2-(2-isopropylphenyl)piperazin-1-yl)-7-azaspiro[3.5]nonan-7-yl)-2-((3-fluoro-1H-pyrrolo[2,3-b]pyridin-5-yl)oxy)-N-((4-((((1r,4r)-4-hydroxy-4-methylcyclohexyl)methyl)amino)-3-nitrophenyl)sulfonyl)benzamide]
IC50 [1]: 0.17 nM | Ratio of Bcl-2 G101V/WT [2]: 2.4 | half-life at 1 μM [3]: 247 min | microsomal CLint at 1 μM [3]: 5.6 µL/min/mg | IC50 [4]: 0.27 nM | half-life at 1 μM [5]: 222 min | microsomal CLint at 1 μM [5]: 6.3 µL/min/mg
